According to patent US9072698B2, “Method for screening anti-cancer compounds inhibiting function of TM4SF5 and anti-cancer composition containing chalcone compounds” (Seoul National University Industry Foundation, priority 2006, dated 2015):
Converted amounts (≈) assume the structure as drawn.

Legend:
A-549 (lung carcinoma) = test: In vitro cytotoxicity, sulforhodamine B (SRB) method, A-549; assay type: cell-based; settings: Homo sapiens, A549; A-549, SRB method; read-out: cytotoxicity (ED50) A-549
Summary of the method: (§1)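 Cells grown in RPMI 1640 with 10% FCS at 37 °C, 5% CO2 were exposed to compounds at 30, 10, 3, 1 and 0.3 μg/ml final, with DMSO below 0.5%. Cytotoxicity was read by the standard NCI sulforhodamine B protein-staining method.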

SNU449Tp cells [1] = test: BrdU immunofluorescent staining, S-phase progression (FIG. 44); assay type: cell-based, human; settings: 20 μM, BrdU for 24 hrs
Protocol: (§2) When cells were transfected with given specific genes or infected with various viruses, they were used after being cultured for a given period of time. Cells treated with 10 mM lysophosphatidic acid (LPA) were used 1 hour after being attached to cover glasses. Immunofluorescent staining was carried out by preparing a slide for fluorescent analysis through incubation with a primary antibody against a target protein, washing out unbound antibody molecules, incubation with a fluorescein-conjugated secondary antibody and washing out unbound antibody molecules, and actin filament staininh was carried out with rhodamine-conjugated phalloidin. Antibodies used included antibodies against E-cadherin, β-catenin, FLAG, 4′-6-diamidino-2-phenylindole (DAPI), 5-brorno-2′-deoxy-uridine (BrdU), p27^kip1, ZO1 (zonula occludens-1), and the like. Immunofluorescent stained cover glasses were placed on slides and observed under a fluorescence microscope or a confocal laser scanning microscope.

SNU449 Cp cells = test: Cell growth over time of TM4SF5-null cells (FIG. 43, left); assay type: cell-based, human; settings: TSAHC at given concentrations
Protocol: Arrows indicate the overlapping nuclei of cells undergoing cell division. […] In addition, in order to measure the growth rates of the cells, 5×10^4 cells were plated onto 6-well plates and counted every 12 hrs. The results are expressed as a graph. […] This was observed even at a low cell density. That is, among cells at a low density, TM4SF5-expressing cells proliferated through cell division, during which two nuclei overlapped each other.

[2] = test system: cells not expressing TM4SF5; test: Growth/proliferation of cells not expressing TM4SF5 (FIG. 51); assay type: cell-based
SNU449Tp cells [3] = test: Invasion into collagen gel, microcarrier beads (FIG. 66); assay type: cell-based, human; settings: 20 μM, 18 hrs
Protocol: Cell invasiveness was analyzed using Cytodex-3 microcarriers. SNU449 Cp and SNU449Tp cells were grown on microcarrier beads in an attached state, and cultured in a collagen gel matrix, including a serum-containing medium at 37° C.
SNU449 Cp cells and SNU449Tp cells were allowed to attach to microcarrier beads, and cultured in the presence of 20 μM of TSAHC for 18 hrs. Bead-cells were cultured in a collagen gel matrix, including a serum-containing medium, and observed for invasion into the collagen gel at given time points.

[4] = test system: HCT15 (colon adenocarcinoma); test: In vitro cytotoxicity, sulforhodamine B (SRB) method, HCT15; assay type: cell-based; settings: Homo sapiens; HCT-15, SRB method; read-out: cytotoxicity (ED50) HCT-15
Summary of the method: as §1

TM4SF5-expressing cells = test: Immunostaining for DNA and the actin cytoskeleton, cell shape (FIG. 49); assay type: cell-based, human
Protocol: as §2

cytosolic p27^kip1 = test: Immunofluorescent staining for p27^kip1 (FIG. 47); assay type: cell-based, human; settings: 449Tp cells
Protocol: as §2

[5] = test system: tumors formed in mice implanted with TM4SF5-expressing cells (SNU449Tp); test: Tumors in nude mice implanted with TM4SF5-expressing cells, intraperitoneal TSAHC; assay type: in vivo
Protocol: Next, various SNU449 cell lines, expressing or not expressing TM4SF5, were injected into nude mice. 4-5 week-old female nude BALB/cAnNCrjBgi-nu mice (Orient. Co. Ltd), weighing about 20 g, were used. Animals were housed in sterilized cages, and given free access to sterilized water and feed. All procedures were carried out in the clean bench in which laminar flow was continuously maintained to provide a clean environment.
Nude mice were maintained under a light cycle of 12-hr light and 12-hr dark using indoor lamps, for biological cycle of day and night. Suspensions of SNU449 Cp, SNU449Tp, SNU449T16 and SNU449T16m cells were centrifuged, and the concentrated cells were counted using a hemocytometer to adjust them to a density of 1×10^7 cells/200 The prepared cells were subcutaneously injected into the flank of nude mice using a 1-ml syringe having a 26-gauge needle. Experimental animals were maintained according to the preclinical method for breeding of laboratory animals, Seoul National University, and were monitored for tumor formation by SNU449Tp cells.
The length and width of tumors formed in nude mice, prepared in Example 6, were measured one every two days using calipers. Tumor volume was calculated according to the following Equation: Volume (mm^3)=Length×Width2×½, Length: long diameter, Width: short diameter). […]

## Cc1ccc(S(=O)(=O)Nc2ccc(C(=O)/C=C/c3ccc(O)cc3)cc2)cc1 [Compound 1, 4′-(p-toluenesulfonylamino)-4-hydroxychalcone]
A-549 (lung carcinoma)
  IC50: 38 µg/mL (≈ 96.6 µM)
SNU449Tp cells [1]
  S-phase progression: inhibited S-phase progression
SNU449 Cp cells
  effect on TM4SF5-null cells: did not affect TM4SF5-null cells
[2]
  growth or proliferation of cells not expressing TM4SF5: did not affect cells not expressing TM4SF5
SNU449Tp cells [3]
  TM4SF5-mediated cell invasion into collagen gel: inhibit TM4SF5-mediated cell invasion into collagen gel
[4]
  IC50: 35 µg/mL (≈ 89 µM)
TM4SF5-expressing cells
  cell shape: returned the elongated cell shape to the same polygonal shape as that of TM4SF5-null control cells
Cytosolic p27^kip1
  cytosolic p27^kip1 levels: decrease in cytosolic p27^kip1 levels
[5]; 5 mg/kg intraperitoneally once every two days for three weeks
  tumor size decreased by: 45%
[5]; 50 mg/kg intraperitoneally once every two days for three weeks
  tumor size decreased by: 88%
